Values joined by “and” are separate entries in the source; they are usually repeats but may differ in a detail not shown here. Equal values may be shown once. Read-outs that look alike come from different tables or passages of the source.
Molecular target: T1, human calcium receptor (Homo sapiens, UniProt P41180, R990G)
T1 construct: expressed in transfected cells; host or cells: HEK 293
T1 sequence (P41180 20-1078 R990G): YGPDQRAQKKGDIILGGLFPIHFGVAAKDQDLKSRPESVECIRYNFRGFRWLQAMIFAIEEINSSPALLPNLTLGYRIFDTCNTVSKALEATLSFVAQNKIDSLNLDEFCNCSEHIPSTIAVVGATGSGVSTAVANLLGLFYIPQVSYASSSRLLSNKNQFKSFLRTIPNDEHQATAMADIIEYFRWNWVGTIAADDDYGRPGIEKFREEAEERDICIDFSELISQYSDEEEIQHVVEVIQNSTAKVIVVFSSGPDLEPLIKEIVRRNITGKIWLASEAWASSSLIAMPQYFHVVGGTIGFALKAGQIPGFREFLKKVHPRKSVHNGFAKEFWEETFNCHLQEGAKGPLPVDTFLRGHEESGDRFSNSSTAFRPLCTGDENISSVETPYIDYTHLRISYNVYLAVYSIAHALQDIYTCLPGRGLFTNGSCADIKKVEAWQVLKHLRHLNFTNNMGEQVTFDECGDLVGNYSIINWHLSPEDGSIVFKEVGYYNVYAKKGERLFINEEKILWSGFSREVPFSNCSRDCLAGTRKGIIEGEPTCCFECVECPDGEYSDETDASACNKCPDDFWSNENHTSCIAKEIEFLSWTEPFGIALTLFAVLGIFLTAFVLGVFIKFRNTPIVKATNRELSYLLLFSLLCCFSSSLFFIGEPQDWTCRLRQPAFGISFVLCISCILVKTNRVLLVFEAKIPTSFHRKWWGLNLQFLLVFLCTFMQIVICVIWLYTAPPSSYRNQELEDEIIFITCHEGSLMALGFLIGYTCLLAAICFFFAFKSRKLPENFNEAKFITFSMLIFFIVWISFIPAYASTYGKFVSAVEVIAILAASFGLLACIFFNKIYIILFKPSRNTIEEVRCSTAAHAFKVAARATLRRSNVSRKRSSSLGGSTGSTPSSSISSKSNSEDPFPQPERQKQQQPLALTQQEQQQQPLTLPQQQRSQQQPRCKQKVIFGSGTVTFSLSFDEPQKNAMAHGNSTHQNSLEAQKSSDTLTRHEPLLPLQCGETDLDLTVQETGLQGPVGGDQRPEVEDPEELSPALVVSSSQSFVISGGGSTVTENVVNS
Assay: increases in [Ca^2+ ]i in HEK-293 cells expressing the human calcium receptor (fura-2 loaded HEK 293/pHuPCaR4.0 cells), % activity
Type: cell-based

Compound	% activity (33 ng/mL)	% activity (330 ng/mL)	% activity (3300 ng/mL)	% activity
C[C@@H](NCc1cccc(Cl)c1)c1cccc2ccccc12 [Compound 13M]	66%	92%		
C[C@@H](NCc1ccc(Br)cc1)c1cccc2ccccc12 [Compound 17D]	91%	108%		
CCc1ccc(C(C)NCc2ccc(OC)c(C)c2)cc1 (stereo not shown) [Compound 24A]	52%	85%	122%	
CCOc1cccc([C@@H](C)NCCCc2ccccc2)c1 [Compound 6R, (R)-N-(3-phenylpropyl)-1-(3-ethoxyphenyl)ethylamine]	52%	94%		
CC(NCCc1ccccc1)c1ccc(C(C)(C)C)cc1 (stereo not shown) [Compound 14H]	5%	49%	112%	
COc1cccc(C(C)NCCCc2ccccc2C(F)(F)F)c1 (stereo not shown) [Compound 4V]	59%	93%		
C[C@@H](NCc1ccc(OC(F)(F)F)cc1)c1cccc2ccccc12 [Compound 23F]	45%	82%		
COc1cccc([C@@H](C)NCCCc2ccc(OC(F)(F)F)cc2)c1 [Compound 21N]	42%	98%	124%	
CC(NCCC(c1ccccc1)c1ccccc1)c1ccc(O)cc1 (stereo not shown) [Compound 3R]	2%			45
CC(C)Oc1cccc([C@@H](C)NCCCc2ccccc2Cl)c1 [Compound 21T]	53%	112%	133%	
C[C@@H](NCc1ccc(OCc2ccccc2)cc1)c1cccc2ccccc12 [Compound 12I]	93%	111%	115%	
C[C@@H](NCc1ccc(Cl)c(Cl)c1)c1cccc2ccccc12 [Compound 13R]	98%	132%		
CCN(CCCc1ccccc1)C(C)c1ccc(C(C)(C)C)cc1 (stereo not shown) [Compound 14I]	11%		80%	45
COc1cccc([C@@H](C)NCCCc2ccc(F)cc2)c1 [Compound 4P]		81% and 61%		
C[C@@H](N[C@H](C)c1cccc2ccccc12)c1ccccc1 [Compound 14O]	102%	119%	119%	
COc1cccc([C@@H](C)NCC=Cc2ccc(C)cc2)c1 [Compound 12B, (R)-N-[3-(4-methylphenyl)prop-2-enyl]-1-(3-methoxyphenyl)ethylamine]	56%	110%	130%	
CC(NC(C)c1cccc2ccccc12)c1ccc(Cl)cc1 (stereo not shown) [Compound 14S]	105%	106%	116%	
COc1cccc([C@@H](C)NC(C)CCc2cc(F)cc(F)c2)c1 (stereo partly shown) [Compound 24P]	110%	138%	140%	
CC(O)c1ccc(CNC(C)c2cccc3ccccc23)cc1 (mixture of isomers) [Compound 17B]	61%	92%		
C[C@@H](NCCCc1ccccc1Cl)c1cccc(OCC(F)(F)F)c1 [Compound 20Y]	74%	95%	117%	
CCc1cccc(C(C)NCc2ccc(OC)c(C)c2)c1 (stereo not shown) [Compound 23Z]	100%	126%	129%	
COc1cc(C)c(CN[C@H](C)c2cccc3ccccc23)cc1C [Compound 16U]	50%	85%		

From patent publication US6211244A, “Calcium receptor-active compounds” (priority 1995, dated 2001)
